Assays:
[1] = test system: untransfected HEK293 cells (adenylyl cyclase); assay: Forskolin cAMP concentration-response with or without Ca2+; type: cell-based, human; conditions: 0.5 mM CaCl2
[2] = molecular target: wild-type MC4R stably expressed in HEK293 cells (Homo sapiens, UniProt P32245); type: binding; conditions: 10 μM Ca2+; wild-type receptor; against 80 pM 125I-NDP-MSH
Chain of wild-type MC4R stably expressed in HEK293 cells (P32245 whole entry): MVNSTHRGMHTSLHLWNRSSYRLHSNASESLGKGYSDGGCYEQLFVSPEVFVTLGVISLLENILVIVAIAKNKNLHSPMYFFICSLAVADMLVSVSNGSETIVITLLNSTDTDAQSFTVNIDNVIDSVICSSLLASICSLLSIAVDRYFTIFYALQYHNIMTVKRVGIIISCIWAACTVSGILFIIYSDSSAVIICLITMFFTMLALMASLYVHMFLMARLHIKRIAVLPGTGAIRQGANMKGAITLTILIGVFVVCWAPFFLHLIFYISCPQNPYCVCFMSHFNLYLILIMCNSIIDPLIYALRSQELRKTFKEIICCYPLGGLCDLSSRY

Compound | Ca2+ dependence of non-receptor-mediated activation of adenylyl cyclase [1] | effect of Ca2+ on Ki [2]
C=C[C@@]1(C)CC(=O)[C@]2(O)[C@@]3(C)[C@@H](O)CCC(C)(C)[C@@H]3[C@H](O)[C@H](OC(C)=O)[C@@]2(C)O1 [forskolin] | no Ca^2+ dependence | –
agouti-related protein (SSRRCVRLHESCLGQQVPCCDPCATCYCRFFNAFCYCRKLGTAMNPCSRT; UniProt O00253 83-132, looked up, fragment) [AgRP] | – | only marginally lowered
